≈ marks a conversion by molar mass, not a printed value.

Settings in the first series: not given
Broadly, the solubility is how much of the substance goes into solution per volume. `CCOC(OCC)C(C)=O` showed a solubility of 622 mM (≈ 91000 µg/mL). `Cn1cnc2nc(Cl)nc(NN)c21` returned a solubility of 72 mM (≈ 14300 µg/mL). Same read-out and setting: the result for `O=C(O)C1=CCCc2ccccc21` reads 1.61 mM (≈ 280 µg/mL); that for `CC=Cc1ccc(OCC(=O)O)c(OC)c1`, 26.1 mM (≈ 5810 µg/mL); that for `NCCCNc1ccccc1`, 22.2 mM (≈ 3330 µg/mL). `O=S(=O)(CCCl)CCOCCS(=O)(=O)CCCl` had a solubility of 11.5 mM (≈ 3750 µg/mL). On the same count and under the same terms, the result for `CCC(CC)(S(=O)(=O)CC)S(=O)(=O)CC` reads 8.66 mM (≈ 2220 µg/mL). With `CC(C)[C@@H]1NC(=O)CNC1=O`, the solubility is 128 mM (≈ 20000 µg/mL).

For the compound `O=C(OC1CCNCC1)c1ccccc1`, the solubility was 48.7 mM (≈ 10000 µg/mL). In turn, `CCCCOC(=O)CCOC` had a solubility of 61.2 mM (≈ 9800 µg/mL). In the case of `CN(C)CCCCl`, the solubility amounted to 633 mM (≈ 77000 µg/mL). Still for that read-out and setting: the result for `O=[N+]([O-])CCl` reads 524 mM (≈ 50000 µg/mL); that for `C[C@H]1NC(=O)[C@@H](C)NC1=O`, 703 mM (≈ 100000 µg/mL). In the case of `CCN(CC)CCSCCN(CC)CC`, the solubility was 4.3 mM (≈ 1000 µg/mL).

Staying with this series, now noted: 20 °C.
For the compound `OCc1ccc(Br)cc1`, the solubility came to 11.8 mM (≈ 2200 µg/mL). On the same count and under the same terms, the result for `CC(=O)Nc1ccc(F)cc1C` reads 43.7 mM (≈ 7310 µg/mL); that for `O=C1CCCCCN1C(=O)c1ccccc1`, 6.81 mM (≈ 1480 µg/mL). On the same count and under the same terms, as for `CC(=O)Nc1ccc(/C=N/NC(N)=S)cc1`, the figure is 0.372 mM (≈ 88 µg/mL); as for `O=C1COc2ccccc2N1`, 2.68 mM (≈ 400 µg/mL). Still for that read-out and setting: the result for `CN(CCCCC(=O)O)S(=O)(=O)c1ccccc1` reads 27.6 mM (≈ 7500 µg/mL); that for `Cc1cc(C)nc(C(N)=O)n1`, 1320 mM (≈ 200000 µg/mL).

In the case of `Sc1nnc(S)s1`, the solubility stood at 176 mM (≈ 26400 µg/mL). The same measure, in the same setting: the result for `CCOC(=O)c1[nH]c(C)cc1C` reads 2.39 mM (≈ 400 µg/mL); that for `NC1=NC2=NC=NC2C(C(F)(F)F)=N1` (stereo not given), 0.733 mM (≈ 149 µg/mL).

The compound `O=c1[nH]ccc2cccnc12` displayed a solubility of 72 mM (≈ 10500 µg/mL). `Cc1ccc(OCC(=O)O)cc1` returned a solubility of 7.22 mM (≈ 1200 µg/mL). On the same count and under the same terms, the result for `NC(N)=N/C(N)=N/c1cccc2ccccc12` reads 4.84 mM (≈ 1100 µg/mL); that for `NC[C@H](O)C(=O)O`, 148 mM (≈ 15500 µg/mL). Still for that read-out and setting: the result for `CC1(CCN2CCCCC2)NC(=O)NC1=O` (stereo not given) reads 151 mM (≈ 34000 µg/mL); that for `CSc1ncc2nccnc2n1`, 17.5 mM (≈ 3130 µg/mL); that for `NC(=O)C(N)C(O)C(=O)O` (stereo not given), 70.9 mM (≈ 10500 µg/mL). Same read-out and setting: as for `Cn1c(=O)ncc2nccnc21`, the figure is 42.5 mM (≈ 6900 µg/mL); as for `CCCC(O)(CCC)C(O)c1ccccc1` (stereo not given), 2.25 mM (≈ 500 µg/mL).

The series is the same for the next values; noted with them: 21 °C.
`COc1ccc(NC(N)=O)cc1` registered a solubility of 25.6 mM (≈ 4250 µg/mL).

Turning to `CC(=O)N[C@@H](Cc1c[nH]c2ccccc12)C(=O)O` (racemic), the solubility is 4.87 mM (≈ 1200 µg/mL).

The series is the same for the next values; noted with them: 22 °C.
`O=C1CCCCCCCCCCCCCCCCCN1` returned a solubility of 1.42 mM (≈ 400 µg/mL).

The series is the same for the next values; noted with them: 23 °C.
As for `O=S(=O)(c1ccccc1O)c1ccccc1O`, the solubility stood at 0.48 mM (≈ 120 µg/mL).

Staying with this series, now noted: 24 °C.
`c1ccc(CNCCNCc2ccccc2)cc1` had a solubility of 16.3 mM (≈ 3930 µg/mL).

The series is the same for the next values; noted with them: 25 °C.
Compound `CNC(CC(C)C)C(=O)O` (stereo in doubt) yielded a solubility of 306 mM (≈ 44400 µg/mL).

`O=C(O)CCCCCCNS(=O)(=O)c1ccccc1` came in with a solubility of 8.97 mM (≈ 2560 µg/mL). On the same count and under the same terms, as for `CCN1CC(=O)N=C1N`, the figure is 684 mM (≈ 87000 µg/mL). Same read-out and setting: as for `C[Si](C)(C)CCN`, the figure is 15.6 mM (≈ 1830 µg/mL); as for `O=C(O)c1ccc(O)cc1O`, 37.5 mM (≈ 5780 µg/mL). On to `CCCCCCC(C(=O)O)C(=O)O`, for which the solubility stood at 22 mM (≈ 4150 µg/mL). The compound `CCc1nc2c(c(=O)n(C)c(=O)n2C)n1C` displayed a solubility of 27 mM (≈ 6000 µg/mL). For the compound `CCC(CC)COC(=O)NS(N)(=O)=O`, the solubility was determined as 17.8 mM (≈ 4000 µg/mL). For `Cc1cc(Cl)c(O)c(Cl)c1`, the solubility was 38 mM (≈ 6730 µg/mL). Compound `COc1ccc(C(=O)CCC(=O)O)cc1` yielded a solubility of 86.5 mM (≈ 18000 µg/mL). The same measure, in the same setting: the result for `O=C(O)c1c(O)ccc2ccccc12` reads 0.744 mM (≈ 140 µg/mL); that for `CCCOC(=O)CCOC`, 219 mM (≈ 32000 µg/mL). Take `CC(=O)OC[C@@H](O)[C@@H](OC(C)=O)[C@H](OC(C)=O)[C@H](C=O)OC(C)=O`: the solubility turned out to be 44.2 mM (≈ 15400 µg/mL). `Cc1[nH]c(=O)[nH]c(=O)c1CC(=O)O` showed a solubility of 4.89 mM (≈ 900 µg/mL). `CCCCCOC(=O)CCOCC` gave a solubility of 6.37 mM (≈ 1200 µg/mL). Still for that read-out and setting: as for `O=CNCC(=O)O`, the figure is 1850 mM (≈ 191000 µg/mL).

The series is the same for the next values; noted with them: 27 °C.
Regarding `CCC(C)(C)NC(N)=O`, the solubility was found to be 96.8 mM (≈ 12600 µg/mL).

The record behind these values is the OPERA property sets (Mansouri et al. 2018).
